Reference: patent US20130115256A1, “METHODS FOR TREATING OR PREVENTING VASCULAR GRAFT FAILURE” (priority 2010, published 2013)

How the values were obtained:
[1] = tested on: human coronary artery endothelial cells (HCAEC); test: TNF-α-induced IL-6 and IL-8 expression in HCAEC (ELISA); assay type: cell-based; settings: 0.5 mM MMI-0100, 24 hours after 6 hour TNF-α
Procedure: Primary human coronary artery endothelial cells (HCAEC) were cultured and seeded onto a 96-well plate, using methods described in the MTS proliferation assay above. Cells were again stimulated with 20 ng/ml of TNF-α for 6 hours and then treated with MMI-0100 (SEQ ID NO: 1) for approximately 24 hours. Supernatants were then collected and analyzed for drug effect on inflammatory cytokines.
IL-6 (Cat #: 900-K16; Lot #: 0909016) and IL-8 (Cat #: 900-K18; Lot #: 0209018) ELISA kits (Peprotech; Rocky Hill, N.J.) were used to measure levels of these cytokines from HCAEC supernatants following treatment with MMI-0100 ([…]; SEQ ID NO: 1). The Human IL-6 ELISA development kit contains the key components required for the quantitative measurement of natural and/or recombinant hIL-6 in a sandwich ELISA format within the range of 32-2000 pg/ml. Human IL-8 ELISA development kit contains the key components required for the quantitative measurement of natural and/or recombinant hIL-8 in a sandwich ELISA format within the range of 16-1000 pg/ml.
Briefly, 10 μl of supernatant was diluted with 90 μl of diluents; 3 replicates of each sample were used. Data were collected at 405 nm with correction at 650 nm on a plate reader. Each plate was monitored for 1 hour with readings taken every 5 minutes. Concentrations of IL-6 and IL-8 in test samples were determined by extrapolating from a standard curve. […]

THP-1 cells = test: TNF-α and IL-1β production in PMA/LPS-treated THP-1 cells (ELISA); assay type: cell-based, human
Procedure: The ability of MMI-0100 ([…]; SEQ ID NO: 1) to inhibit the production of inflammatory cytokines (TNF-α and IL-1β) in vitro was examined using THP-1 cells. Briefly, THP-1 cells were activated with PMA for 24 hours, and treated subsequently with 10 μg of LPS. The amount of inflammatory cytokines (TNF-α and IL-1β, pg/ml) produced in the medium in the presence or absence of increasing concentrations (1 μM, 3 μM, 10 μM, and 30 μM) of MMI-0100 ([…]; SEQ ID NO: 1) was determined by cytokine specific enzyme-linked immunosorbent assay (ELISA). Analysis of inflammatory cytokines (TNF-α and IL-1β) was performed with cytokine-specific ELISA kit (PeproTech, Inc., Rocky Hill, N.J.). The cytokine-specific ELISA employs highly-purified anti-cytokine antibodies (capture antibodies) that are noncovalently adsorbed (“coated”) onto plastic microwell plates. After washings, the immobilized antibodies capture specifically soluble cytokine proteins present in samples applied to the plate. After washing away unbound material, the captured cytokine proteins are detected by biotin-conjugated anti-cytokine antibodies (detection antibodies) followed by an enzyme-labeled avidin or streptavidin reporter. Following addition of a chromogenic (color-developing) substrate-containing solution, the level of colored product generated by the bound, enzyme-linked, detection reagents can be measured spectrophotometrically using an ELISA-plate reader at an appropriate optical density.
In order to prepare plates for ELISA, capture antibodies (anti-TNF-α or anti-IL-1β antibodies) were diluted with PBS to a concentration of 1 μg/ml. 100 μl of each diluted antibody was added immediately to each well of the ELISA plate. […]
The standard was diluted from 2 ng/ml to zero in diluent, and 100 μl of the standard or sample was added immediately to each well in triplicate and incubated at room temperature for at least 2 hours. […] The level of colored product generated by the bound, enzyme-linked, detection reagents was measured spectrophotometrically using an ELISA-plate reader at an appropriate optical density.

[2] = Toxicity observation (test not specified)

YARAAARQARAKALARQLGVAA [MMI-0100]
TNF-α-induced IL-6 expression [1]: reduced the level of TNF-α-induced IL-6 expression to that of the untreated control | TNF-α-induced IL-8 expression [1]: no effect | IL-1β level in the medium (THP-1 cells; 30 μM MMI-0100, PMA then LPS (stimulated control about 450 pg/ml)): about 100 pg/ml | TNF-α level in the medium (THP-1 cells; 30 μM MMI-0100, PMA then LPS (stimulated control about 1000 pg/ml)): about 300 pg/ml | production of pro-inflammatory cytokines (TNF-α and IL-1β) (THP-1 cells; 1, 3, 10, 30 μM MMI-0100): dose-dependent manner | evidence of toxicity, tissue erosion, or necrosis [2]: did not show any evidence
